Measured values as given in patent US6689372B1, “Microbicidal active substances” (Ciba Specialty Chemicals Corporation, priority 1998, dated 2004).

Legend:
Assay type in all cases: cell-based
[1] = tested on: Corynebacterium xerosis ATCC 373; assay: Agar incorporation test (MIC test); conditions: C. xerosis
Description: (§1) Determination of the Minimum Inhibiting Concentration (MIC) in the Agar Incorporation Test (MIC Test)
(§2) When the nutrient substrate has solidified, 10 μl portions of the following organism dilutions of the test strains in 0.85% NaCl solution are spotted onto the agar medium:
(§3) The plates are incubated at 37° C. for 24 hours (A.niger 3 days at 28° C.) and then the highest dilution of the test substance at which growth is just no longer discernible (corresponds to MIC) is determined.

[2] = tested on: Staphylococcus epidermidis ATCC 12228; assay: Agar incorporation test (MIC test); conditions: S. epidermidis
Description: as §1, §2, §3

[3] = tested on: Escherichia coli NCTC 8196; assay: Agar incorporation test (MIC test); conditions: E. coli
Description: as §1, §2, §3

[4] = tested on: Candida albicans ATCC 10231; assay: Agar incorporation test (MIC test); conditions: C. albicans
Description: as §1, §2, §3

[5] = tested on: Aspergillus niger ATCC 6275; assay: Agar incorporation test (MIC test); conditions: A. niger
Description: as §1, §2, §3

[6] = tested on: Pseudomonas aeruginosa CIP A-22; assay: Agar incorporation test (MIC test); conditions: P. aeruginosa
Description: as §1, §2, §3

[7] = tested on: Staphylococcus aureus ATCC 9144; assay: Agar incorporation test (MIC test); conditions: S. aureus
Description: as §1, §2, §3

[8] = tested on: Escherichia coli NCTC 8196; assay: Agar diffusion test; note: values in mm; conditions: E. coli NCTC 8196
Description: (§4) Determination of antimicrobial activity in the agar diffusion test [table] After the bacteria precultures have been incubated, they are diluted 1:100 with dilution medium. 3.5 ml of that dilution of the bacteria are introduced into 500 ml of agar and from that organism-containing agar plates of about 15 ml of medium are poured. […] After the agar plates have cooled and solidified, wells are punched in the agar (diameter 10 mm) and 100 μl of test substance solution are introduced into each well. After incubation of the plates, the diameters of the growth-free inhibiting areolas in the agar are determined.

[9] = tested on: Candida albicans ATCC 10231; assay: Agar diffusion test; note: values in mm
Description: as §4

[10] = tested on: Pseudomonas aeruginosa ATCC 15 442; assay: Agar diffusion test; note: values in mm; conditions: P. aeruginosa ATCC 15 442
Description: as §4

[11] = tested on: Staphylococcus aureus ATCC 9144; assay: Agar diffusion test; note: values in mm; conditions: S. aureus ATCC 9144
Description: as §4

[12] = tested on: Aspergillus niger ATCC 6275; assay: Agar diffusion test; note: values in mm; conditions: A. niger ATCC 6275
Description: Determination of antimicrobial activity in the agar diffusion test [table] After the bacteria precultures have been incubated, they are diluted 1:100 with dilution medium. 3.5 ml of that dilution of the bacteria are introduced into 500 ml of agar and from that organism-containing agar plates of about 15 ml of medium are poured. The test substances are dissolved in a suitable solvent in final concentrations of 1-3%. After the agar plates have cooled and solidified, wells are punched in the agar (diameter 10 mm) and 100 μl of test substance solution are introduced into each well. After incubation of the plates, the diameters of the growth-free inhibiting areolas in the agar are determined.

[13] = 1% in ethanol, C. albicans ATCC 10231
[14] = 2% in ethanol, C. albicans ATCC 10231

SMILES	MIC ([1]; solution in EtOH)	MIC ([2]; solution in EtOH)	MIC ([3]; solution in EtOH)	MIC ([4]; solution in EtOH)	MIC ([5]; solution in EtOH)	MIC ([6]; solution in EtOH)	MIC ([7]; solution in EtOH)	Inhibiting areola diameter ([12]; 1% in ethanol)	Inhibiting areola diameter ([12]; 2% in ethanol)	Inhibiting areola diameter ([8]; 1% in ethanol)	Inhibiting areola diameter ([8]; 2% in ethanol)	Inhibiting areola diameter [9, 13]	Inhibiting areola diameter [9, 14]	Inhibiting areola diameter ([11]; 1% in ethanol)	Inhibiting areola diameter ([11]; 2% in ethanol)	other results
O=c1oc(-c2ccccc2)ns1 [compound 106]	–	–	–	–	–	–	–	–	–	–	–	–	–	–	–	MIC ([1]; solution in DMSO): 10 ppm; MIC ([2]; solution in DMSO): 10 ppm; MIC ([3]; solution in DMSO): 100 ppm; MIC ([4]; solution in DMSO): 100 ppm; MIC ([5]; solution in DMSO): 250 ppm; MIC ([6]; solution in DMSO): 1000 ppm; MIC ([7]; solution in DMSO): 10 ppm
O=c1oc(-c2ccc([N+](=O)[O-])o2)ns1 [compound 105]	–	–	–	–	–	–	–	–	–	–	–	–	–	–	–	Inhibiting areola diameter ([8]; 0.1% in THF): 1/1; Inhibiting areola diameter ([8]; 0.5% in THF): 3/3; Inhibiting areola diameter ([8]; 1.0% in THF): 6/6; Inhibiting areola diameter ([8]; 3.0% in THF): 6/6; Inhibiting areola diameter ([9]; 0.1% in THF, C. albicans ATCC 10 231): 3/3; Inhibiting areola diameter ([9]; 0.5% in THF, C. albicans ATCC 10 231): 4/4; Inhibiting areola diameter ([9]; 1.0% in THF, C. albicans ATCC 10 231): 8/8; Inhibiting areola diameter ([9]; 3.0% in THF, C. albicans ATCC 10 231): 9/9; Inhibiting areola diameter ([10]; 0.1% in THF): 0/0; Inhibiting areola diameter ([10]; 0.5% in THF): 1/1; Inhibiting areola diameter ([10]; 1.0% in THF): 5/5; Inhibiting areola diameter ([10]; 3.0% in THF): 6/6; Inhibiting areola diameter ([11]; 0.1% in THF): 4/4; Inhibiting areola diameter ([11]; 0.5% in THF): 10/10; Inhibiting areola diameter ([11]; 1.0% in THF): 11/11; Inhibiting areola diameter ([11]; 3.0% in THF): 11/11
O=c1oc(-c2ccccc2O)ns1 [compound 101]	250 ppm	100 ppm	1000 ppm	100 ppm	100 ppm	1000 ppm	100 ppm	–	–	–	–	–	–	–	–	–
O=c1oc(-c2ccc(Cl)cc2)ns1 [compound 107]	–	–	–	–	–	–	–	0/0	0/0	1/1	1/1	3/3	4/4	4/4	5/5	–
Cc1nsc(=O)o1 [compound 108]	–	–	–	–	–	–	–	4/5	12/12	1/1	3/2	8/8	10/10	12/12	20/20	–
O=c1oc(-c2cccnc2)ns1 [compound 103]	200 ppm	100 ppm	600 ppm	100 ppm	600 ppm	600 ppm	100 ppm	–	–	–	–	–	–	–	–	–
